Assay results: paper PMC7034070, “Synthesis, anti-inflammatory, cytotoxic, and COX-1/2 inhibitory activities of cyclic imides bearing 3-benzenesulfonamide, oxime, and β-phenylalanine scaffolds: a molecular docking study” (Journal of Enzyme Inhibition and Medicinal Chemistry, 2020)
“And” between values parts separate entries of the source, which are not always exact repeats. Equal entries are not always repeated.

Assays:
[1] = test system: UO-31 (Renal Cancer); experiment: NCI 59 cell line panel, single dose; type: cell-based; conditions: UO-31, one dose 10.0 μM
[2] = test system: NCI-H522 (NSC Lung Cancer); experiment: NCI 59 cell line panel, single dose; type: cell-based; conditions: NCI-H522, one dose 10.0 μM
[3] = test system: carrageenan induced rat paw oedema; experiment: rat carrageenan-induced foot paw oedema model; type: in vivo; conditions: for Mean % increase in paw weight ± SEM / % Inhibition of paw oedema from control group: 2 h after carrageenan; for Mean % increase in paw weight ± SEM: control group 165.6 ± 1.6; for % Inhibition of paw oedema from control group: single dose screen (Table 1)
Description: Anti-inflammatory assessment of the newly synthesised compounds was carried out using an in vivo rat carrageenan-induced foot paw oedema model, as reported previously[16]^,[17].

[4] = test system: 59 cancer cell lines; experiment: full NCI 59 cell line panel assay, single dose; type: cell-based; conditions: one dose 10.0 μM, 59 cell lines
[5] = test system: CAKI-1 (Renal Cancer); experiment: NCI 59 cell line panel, single dose; type: cell-based; conditions: CAKI-1, one dose 10.0 μM
[6] = target: T1, COX-1 (Ovis aries, UniProt P05979); experiment: colorimetric COX (ovine) inhibitor screening assay kit; type: biochemical; conditions: ovine COX-1, mean of two determinations
T1 construct: purchased Cayman Chemicals Inc., Ann Arbour, MI
T1 sequence (P05979 25-600): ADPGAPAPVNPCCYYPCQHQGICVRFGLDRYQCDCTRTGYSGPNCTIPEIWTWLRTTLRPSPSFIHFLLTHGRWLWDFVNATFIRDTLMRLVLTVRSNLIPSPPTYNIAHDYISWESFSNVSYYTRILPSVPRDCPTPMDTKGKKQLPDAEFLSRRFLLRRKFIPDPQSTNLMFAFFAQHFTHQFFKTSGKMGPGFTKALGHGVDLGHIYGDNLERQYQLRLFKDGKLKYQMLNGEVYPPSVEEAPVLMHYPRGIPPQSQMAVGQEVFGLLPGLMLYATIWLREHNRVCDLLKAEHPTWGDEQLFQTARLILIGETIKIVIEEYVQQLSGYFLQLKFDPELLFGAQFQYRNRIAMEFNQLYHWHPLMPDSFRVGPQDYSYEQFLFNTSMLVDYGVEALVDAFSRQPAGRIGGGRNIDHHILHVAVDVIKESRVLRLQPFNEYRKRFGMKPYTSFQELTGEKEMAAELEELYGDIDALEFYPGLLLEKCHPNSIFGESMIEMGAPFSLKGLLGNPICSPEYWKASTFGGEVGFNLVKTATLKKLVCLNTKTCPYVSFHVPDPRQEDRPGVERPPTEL
Text: (§1) To determine the relative ability of the test compounds and reference drugs to inhibit COX-1/COX-2 isozymes, we used the colorimetric COX (ovine) inhibitor screening assay kit (Cayman Chemicals Inc., Ann Arbour, MI), according to the manufacturer’s instructions[3]^,[10]^,[11]^,[20].

[7] = target: T2, COX-2 (Ovis aries, UniProt P79208); experiment: as above; type: biochemical; conditions: for SI, selectivity index (COX-1 IC50/COX-2 IC50): ovine COX-1/COX-2; for IC50: ovine COX-2, mean of two determinations
T2 construct: purchased Cayman Chemicals Inc., Ann Arbour, MI
T2 sequence (P79208 17-603): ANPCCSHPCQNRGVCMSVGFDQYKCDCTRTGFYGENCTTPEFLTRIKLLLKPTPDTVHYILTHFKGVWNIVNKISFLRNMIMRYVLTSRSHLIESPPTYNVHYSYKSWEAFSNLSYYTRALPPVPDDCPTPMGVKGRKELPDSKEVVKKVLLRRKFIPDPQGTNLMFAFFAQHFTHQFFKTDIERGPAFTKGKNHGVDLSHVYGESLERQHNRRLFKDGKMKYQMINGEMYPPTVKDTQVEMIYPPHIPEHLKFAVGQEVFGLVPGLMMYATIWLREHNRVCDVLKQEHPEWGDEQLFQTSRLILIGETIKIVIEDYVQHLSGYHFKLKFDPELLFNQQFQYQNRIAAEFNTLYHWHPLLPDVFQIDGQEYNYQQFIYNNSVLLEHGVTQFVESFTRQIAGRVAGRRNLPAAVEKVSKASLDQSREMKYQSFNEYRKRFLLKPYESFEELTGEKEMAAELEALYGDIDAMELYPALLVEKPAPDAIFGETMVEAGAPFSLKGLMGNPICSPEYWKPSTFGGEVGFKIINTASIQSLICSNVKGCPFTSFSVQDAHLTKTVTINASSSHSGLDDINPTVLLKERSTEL
Text: as §1

[8] = test system: SNB-75 (CNS Cancer); experiment: NCI 59 cell line panel, single dose; type: cell-based; conditions: SNB-75, one dose 10.0 μM
[9] = test system: HOP-92 (NSC Lung Cancer); experiment: NCI 59 cell line panel, single dose; type: cell-based; conditions: HOP-92, one dose 10.0 μM
[10] = test system: mice; experiment: Ulcerogenicity measurement; type: in vivo
Description: Ulcerogenicity was evaluated according to a previously reported method[6]^a,[17]^,[18]. The number and total length of the ulcers for each animal were measured and their averages were calculated and used as the ulcer indices.

[11] = test system: EKVX (NSC Lung Cancer); experiment: NCI 59 cell line panel, single dose; conditions: one dose 10.0 μM
[12] = test system: HCT-116 (Colon Cancer); experiment: NCI 59 cell line panel, single dose; conditions: HCT-116, one dose 10.0 μM
[13] = test system: PC-3 (Prostate Cancer); experiment: NCI 59 cell line panel, single dose; type: cell-based; conditions: PC-3, one dose 10.0 μM
[14] = test system: A498 (Renal Cancer); experiment: NCI 59 cell line panel, single dose; conditions: A498, one dose 10.0 μM
[15] = test system: SF-295 (CNS Cancer); experiment: NCI 59 cell line panel, single dose; conditions: SF-295, one dose 10.0 μM
[16] = test system: T-47D (Breast Cancer); experiment: NCI 59 cell line panel, single dose; conditions: one dose 10.0 μM
[17] = test system: MDA-MB-468 (Breast Cancer); experiment: NCI 59 cell line panel, single dose; conditions: MDA-MB-468, one dose 10.0 μM
[18] = test system: SF-539 (CNS Cancer); experiment: NCI 59 cell line panel, single dose; conditions: SF-539, one dose 10.0 μM
[19] = test system: HCT-15 (Colon Cancer); experiment: NCI 59 cell line panel, single dose; conditions: HCT-15, one dose 10.0 μM
[20] = test system: MOLT-4 (Leukaemia); experiment: NCI 59 cell line panel, single dose; conditions: MOLT-4, one dose 10.0 μM
[21] = test system: NCI-H226 (NSC Lung Cancer); experiment: NCI 59 cell line panel, single dose; conditions: NCI-H226, one dose 10.0 μM
[22] = test system: U251 (CNS Cancer); experiment: NCI 59 cell line panel, single dose; conditions: U251, one dose 10.0 μM
[23] = test system: SR (Leukaemia); experiment: NCI 59 cell line panel, single dose; conditions: one dose 10.0 μM
[24] = test system: LOX IMVI (Melanoma); experiment: NCI 59 cell line panel, single dose; conditions: one dose 10.0 μM
[25] = test system: HT29 (Colon Cancer); experiment: NCI 59 cell line panel, single dose; conditions: HT29, one dose 10.0 μM
[26] = test system: NCI-H23 (NSC Lung Cancer); experiment: NCI 59 cell line panel, single dose; conditions: NCI-H23, one dose 10.0 μM
[27] = test system: MDA-MB-231/ATCC (Breast Cancer); experiment: NCI 59 cell line panel, single dose; conditions: one dose 10.0 μM
[28] = test system: PRMI-8226 (Leukaemia); experiment: NCI 59 cell line panel, single dose; conditions: PRMI-8226, one dose 10.0 μM
[29] = test system: DU-145 (Prostate Cancer); experiment: NCI 59 cell line panel, single dose; conditions: DU-145, one dose 10.0 μM

| Structure (SMILES) | melting point | IC50 [6] | SI, selectivity index (COX-1 IC50/COX-2 IC50) [7] | IC50 [7] | GI% [1] | Mean % increase in paw weight ± SEM [3] | % Inhibition of paw oedema from control group [3] | PCE (positive cytotoxic effect: cell lines with growth inhibition >10% / total number of cell lines) [4] | GI% [8] | further results |
| --- | --- | --- | --- | --- | --- | --- | --- | --- | --- | --- |
| CC(C)(C)c1ccc2c(c1)C(=O)N(c1cccc(S(N)(=O)=O)c1)C2=O [Compound 6, 3-(5-(tert-Butyl)-1,3-dioxoisoindolin-2-yl)benzenesulfonamide] | 151 to 153 °C | > 50 µM | >12.5 | 4 µM |  | 106.1 ± 0.9% | 40.9% and 40.9 ± 0.6% | 2/59 | 12% | GI% [9]: 19% |
| NS(=O)(=O)c1cccc(N2C(=O)c3c(Cl)c(Cl)c(Cl)c(Cl)c3C2=O)c1 [Compound 8] |  |  |  |  | 17% | 134.0 ± 0.9% | 26.9% and 26.9 ± 0.5% | 3/59 | 13% | GI% [9]: 11% |
| Cc1ccc(NC(=O)c2ccc(CN3CCN(C)CC3)cc2)cc1Nc1nccc(-c2cccnc2)n1 [Imatinib] |  |  |  |  |  |  |  | 20/59 |  | GI% [11]: 15.7%; GI% [12]: 18.6%; GI% [13]: 10.6%; GI% [14]: 13.7%; GI% [15]: 15.1%; GI% [16]: 18.6%; GI% [17]: 29.1%; GI% [18]: 24.5%; GI% [19]: 11.5%; GI% [20]: 18.0%; GI% [21]: 10.6%; GI% [22]: 10.6%; GI% [23]: 14.6%; GI% [24]: 11.6%; GI% [25]: 47.1%; GI% [26]: 17.1%; GI% [27]: 11.2%; GI% [28]: 12.6%; GI% [29]: 14.4% |

Continued, in another order:

| melting point | IC50 [6] | SI, selectivity index (COX-1 IC50/COX-2 IC50) [7] | IC50 [7] | Structure (SMILES) | GI% [1] | Mean % increase in paw weight ± SEM [3] | % Inhibition of paw oedema from control group [3] | PCE (positive cytotoxic effect: cell lines with growth inhibition >10% / total number of cell lines) [4] | GI% [8] | further results |
| --- | --- | --- | --- | --- | --- | --- | --- | --- | --- | --- |
| 195 to 197 °C | > 50 µM | >192.3 | 0.26 µM | NS(=O)(=O)c1cccc(N2C(=O)CCC2=O)c1 [Compound 2, 3-(2,5-Dioxopyrrolidin-1-yl)benzenesulfonamide] | 13% | 53.2 ± 0.4% | 71.2% and 71.2 ± 0.5% | 3/59 |  | GI% [2]: 12%; GI% [5]: 12% |
| 159 to 161 °C | > 50 µM | >250.0 | 0.2 µM | NS(=O)(=O)c1cccc(N2C(=O)C3CC=CCC3C2=O)c1 (centres unmarked) [Compound 3, 3-(1,3-Dioxo-1,3,3a,4,7,7a-hexahydro-2H-isoindol-2-yl)benzenesulfonamide] | 16% | 42.4 ± 0.2% | 77.0% and 77.0 ± 0.6% | 3/59 | 12% | GI% [2]: 12% |
| 269 to 271 °C | > 50 µM | >333.3 | 0.15 µM | CC(=NO)c1ccc(N2C(=O)c3ccc([N+](=O)[O-])cc3C2=O)cc1 [Compound 18, 2-(4-(1-(Hydroxyimino)ethyl)phenyl)-5-nitroisoindoline-1,3-dione] |  | 31.6 ± 0.4% | 82.9% and 82.9 ± 0.8% |  |  | Percentage inhibition of paw oedema from control group ([3]; dose 45 mg/kg): 70.1%; Percentage inhibition of paw oedema from control group ([3]; dose 65 mg/kg): 82.9%; Percentage inhibition of paw oedema from control group ([3]; dose 80 mg/kg): 91.9%; ED50 ([3]; from three graded doses (45, 65, 80 mg/kg)): 35.4 mg/kg; Average number of ulcers ([10]; mice): 2; Mean sum of lengths of elongated ulcer ([10]; mice, ± SEM): 0.9 ± 0.08 mm; level of ulcerogenic activity (in words) ([10]; relative to diclofenac and celecoxib): very low levels of ulcerogenic activity |
| 259 to 261 °C | 16.6 µM | 0.55 | 30.3 µM | O=C(O)CC(c1ccccc1)N1C(=O)CCC1=O (centres unmarked) [Compound 21, 3-(2,5-Dioxopyrrolidin-1-yl)-3-phenylpropanoic acid] |  | 98.9 ± 0.6% | 46.4% and 46.4 ± 0.3% |  |  |  |
| 191 to 193 °C | 18.2 µM | 0.61 | 30 µM | O=C(O)CC(c1ccccc1)N1C(=O)c2ccc([N+](=O)[O-])cc2C1=O (centres unmarked) [Compound 28, 3-(5-Nitro-1,3-dioxoisoindolin-2-yl)-3-phenylpropanoic acid] |  | 100.9 ± 0.8% | 42.5% and 42.5 ± 0.2% |  |  |  |
